Publication PMC4417528, “Loureirin B, an essential component of Sanguis Draxonis, inhibits Kv1.3 channel and suppresses cytokine release from Jurkat T cells” (Cell & Bioscience, 2014)

Key:
Type in all cases: cell-based
mKv1.3-H404T = target: T1, mKv1.3-H404T (Mus musculus, UniProt P16390, H404T); test: whole-cell patch clamp, HEK293T cells, steady-state current at +[…] mV
T1 construct: gene Kcna3; mKv1.3 mutant expressed in HEK293T cells

Kv1.3 = target: T2, Kv1.3 (Homo sapiens, UniProt P22001); test: whole-cell patch clamp, Jurkat T cells
T2 construct: gene KCNA3; endogenous Kv1.3 in Jurkat T cells
T2 sequence (P22001 whole entry): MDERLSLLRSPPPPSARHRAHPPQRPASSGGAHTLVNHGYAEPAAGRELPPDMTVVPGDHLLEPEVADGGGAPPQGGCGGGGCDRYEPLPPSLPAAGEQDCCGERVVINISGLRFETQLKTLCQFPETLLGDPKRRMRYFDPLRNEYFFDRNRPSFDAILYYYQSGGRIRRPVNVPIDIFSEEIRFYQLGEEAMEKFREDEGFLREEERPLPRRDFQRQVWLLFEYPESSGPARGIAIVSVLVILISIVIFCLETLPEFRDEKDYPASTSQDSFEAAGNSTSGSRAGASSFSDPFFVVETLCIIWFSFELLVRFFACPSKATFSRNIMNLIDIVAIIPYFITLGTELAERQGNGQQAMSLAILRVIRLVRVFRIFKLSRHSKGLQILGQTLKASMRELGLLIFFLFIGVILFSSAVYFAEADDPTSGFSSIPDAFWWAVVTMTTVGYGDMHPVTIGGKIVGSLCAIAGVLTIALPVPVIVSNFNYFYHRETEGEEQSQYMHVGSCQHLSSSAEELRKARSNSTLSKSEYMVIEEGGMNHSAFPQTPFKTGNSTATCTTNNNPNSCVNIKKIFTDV

mKv1.3 = target: T3, mKv1.3 (Mus musculus, UniProt P16390); test: whole-cell patch clamp, HEK293T cells, steady-state current at +[…] mV
T3 construct: gene Kcna3; wild-type mKv1.3 expressed in HEK293T cells
T3 sequence (P16390 whole entry): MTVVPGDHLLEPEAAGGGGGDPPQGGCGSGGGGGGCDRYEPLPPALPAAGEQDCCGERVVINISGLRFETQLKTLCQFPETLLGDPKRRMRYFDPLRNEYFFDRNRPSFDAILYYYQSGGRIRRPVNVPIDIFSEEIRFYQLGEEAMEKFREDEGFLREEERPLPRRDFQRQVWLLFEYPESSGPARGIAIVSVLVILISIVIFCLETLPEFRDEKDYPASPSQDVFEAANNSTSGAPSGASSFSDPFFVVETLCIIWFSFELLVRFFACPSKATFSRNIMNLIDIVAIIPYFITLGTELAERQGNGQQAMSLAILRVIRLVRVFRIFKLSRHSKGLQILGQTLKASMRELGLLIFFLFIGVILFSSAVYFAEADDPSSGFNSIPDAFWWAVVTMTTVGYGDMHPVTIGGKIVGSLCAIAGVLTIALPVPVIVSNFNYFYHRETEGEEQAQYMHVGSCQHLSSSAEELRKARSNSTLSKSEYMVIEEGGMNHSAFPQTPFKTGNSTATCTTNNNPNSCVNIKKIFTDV

mKv1.3-A418C = target: T4, mKv1.3-A418C (Mus musculus, UniProt P16390, A418C); test: as above
T4 construct: gene Kcna3; mKv1.3 mutant expressed in HEK293T cells
T4 sequence (P16390 whole entry A418C): as the sequence (P16390 whole entry) above, with A418C counted along it

T1 sequence (P16390 whole entry H404T): as the sequence (P16390 whole entry) above, with H404T counted along it

`COc1cc(OC)c(CCC(=O)c2ccc(O)cc2)c(OC)c1` [LrB, loureirin B] was tested, and the IC50 (mKv1.3-H404T) was 116 ± 19.8 µM, the IC50 (Kv1.3) was 19.9 ± 1.8 µM and the IC50 (mKv1.3) was 7.2 ± 0.6 µM. The IC50 (mKv1.3-A418C) was 29.1 ± 7.1 µM.
